In PubChem BioAssay (NCI):
Where “and” joins values, the source holds several entries; their conditions need not be identical. Equal entries are not always repeated.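 Growth conditions: 96-well plates. Treatment: test compound, 48 hours, 5 concentrations. Analysis: linear interpolation between bracketing concentrations; unreached endpoints set to highest concentration. Abbreviation: GI50, concentration required for 50% inhibition of growth. TGI marks complete inhibition of growth.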

Experiments:
Assay in all cases: NCI tumour cell line growth inhibition, 48 h
[1] = tested on: DLD-1 colon
[2] = tested on: SNB-78 CNS
[3] = tested on: P388 leukemia
[4] = tested on: SN12K1 renal
[5] = tested on: P388/ADR leukemia

Structure (SMILES): C#CCNC(=O)NC(CCCCNC(=O)OCc1ccccc1)C(=O)OCc1ccccc1 (configuration not stated)
- TGI [1]: > 100 µM
- TGI [2]: 80.1 µM

Structure (SMILES): CC(=O)OCC(CC[CH2][Sn]([Cl])([Cl])[c]1ccccc1)OC(C)=O (configuration not stated)
- GI50 [1]: 21.2 µM
- TGI [1]: 47.2 µM
- GI50 [2]: 27.5 µM
- TGI [2]: 48.7 µM

Structure (SMILES): Cn1nc(-c2ccccc2)c(C(=O)/C=C/c2ccc(Cl)cc2)c(N2CCOCC2)c1=O
- TGI [1]: 13.6 µM

Structure (SMILES): O=C(Cc1ccccc1)C(c1ccccc1)S(=O)(=O)c1ccccc1 (configuration not stated)
- TGI [1]: > 100 µM
- TGI [2]: > 100 µM

Structure (SMILES): Cc1ccc(C2=Nc3ccccc3SC(c3cccc4c3OCO4)C2)cc1 (configuration not stated)
- TGI [1]: 90.3 µM

Structure (SMILES): C[P+]1(c2ccccc2)CCCCC1
- TGI [1]: > 100 µM
- TGI [2]: > 100 µM

Structure (SMILES): N#C/C(=C1\OC(=N)C(c2ccc(Cl)cc2Cl)C1=O)c1ccc(Cl)cc1Cl (configuration not stated)
- TGI [1]: > 100 µM
- TGI [2]: > 100 µM

Structure (SMILES): O=C(CO)C1CC2C=CC1C2 (configuration not stated)
- TGI [2]: > 100 µM

Structure (SMILES): CC(N)CC(=O)O (configuration not stated)
- TGI [1]: > 5000 µM
- TGI [2]: > 5000 µM

Structure (SMILES): COc1c(CC=C(C)C)c(O)c(C(CC(C)C)c2c(O)c(CC=C(C)C)c(O)c(C(C)=O)c2O)c(O)c1C(C)=O (configuration not stated)
- TGI [1]: 10.9 µM
- TGI [2]: 17.5 µM

Structure (SMILES): Cc1ccc(NC(=O)/C(C#N)=C/c2ccccc2)c(C)c1
- TGI [1]: > 100 µM
- TGI [2]: > 100 µM

Structure (SMILES): c1ccc(CN2COc3c(ccc4c5c(ccc34)CN(Cc3ccccc3)CO5)C2)cc1
- TGI [1]: > 100 µM
- TGI [2]: > 100 µM

Structure (SMILES): CC(C)OC(=O)C1Cc2c([nH]c3ccccc23)C(c2ccccc2)N1 (configuration not stated)
- TGI [1]: > 100 µM
- TGI [2]: > 100 µM

Structure (SMILES): C=C1C=CC2(Br)OC3CC(C)(Cl)C(Br)CC13C2(C)C (configuration not stated)
- TGI [1]: > 100 µM
- TGI [2]: 61.7 µM

Structure (SMILES): COc1c(OC(C)C)cc2cc(O)c(C(=O)NC3Cc4ccc(c(Cl)n4)O[C@@H]4C=C5C#C/C(=C\C#CC6OC56C4OC4CC(C)(O)C(O)C(C)O4)C(OC4CC(O)C(N(C)C)C(C)O4)COC3=O)cc2c1OC (some centres not stated)
- GI50 [1]: 8.16 µg/mL
- TGI [1]: 37.5 µg/mL
- GI50 [2]: 37.5 µg/mL
- TGI [2]: 37.5 µg/mL

Structure (SMILES): O=c1[nH]c2ccccc2n1C1CCN(CCCC(c2ccc(F)cc2)c2ccc(F)cc2)CC1
- TGI [1]: 13.9 µM
- TGI [2]: 32 µM

Structure (SMILES): N#CNC1=NC(N)C(c2nc3ccccc3[nH]2)=C(CCCC(=O)Nc2cccc([N+](=O)[O-])c2)N1 (configuration not stated)
- TGI [1]: > 100 µM

Structure (SMILES): CCOC(=O)C(CCCNC(=O)OC(C)(C)C)N(Cc1ccc(OC)cc1OC)C(=O)CC(=O)CP(=O)(OCC)OCC (configuration not stated)
- TGI [1]: > 100 µM

Structure (SMILES): C/C(=N\NC(=O)C(N)=O)c1c(O)cc(C)oc1=O
- TGI [1]: > 100 µM
- TGI [2]: > 100 µM

Structure (SMILES): C/C(=N\NC(=S)N1CCN(c2ccccn2)CC1)c1ncccn1
- GI50 [1]: 0.0258 µM
- TGI [1]: 4.98 µM and 14.3 µM
- TGI [3]: 0.0153 µM
- TGI [4]: 1.61 µM
- TGI [5]: 0.0154 µM
- TGI [2]: 23.1 µM

Structure (SMILES): CC(C)(C)c1cc(C(=O)O)c2c(c1)C(=O)OC2(c1ccccc1)c1ccccc1C(=O)O (configuration not stated)
- TGI [1]: > 100 µM

Structure (SMILES): CC1CCC2(C)C(CC=C(C=O)C2(O)C=O)C12CO2 (configuration not stated)
- TGI [2]: 5.46 µM

Structure (SMILES): O=C(c1c(O)cc(O)cc1O)C1Cc2ccccc21 (configuration not stated)
- TGI [1]: > 100 µM
- TGI [2]: > 100 µM
